Values quoted from earlier work in US12539267B2, “Product for dyeing keratinous material, containing aminosilicone, a chromophoric compound and organic carbonic acid ester” (Henkel AG & Co. KGaA, priority 2019, dated 2026).

Conditions: 25° C.

Row | SMILES | solubility in water | solubility in water (in words)
1 | O=S(=O)([O-])c1ccc(N=Nc2c(O)ccc3ccccc23)cc1.[Na+] [Acid Orange 7, sodium salt of 4-[(2-hydroxy-1-naphthyl)azo]benzene sulphonate] | more than 7 g/L | 
2 | Nc1cc(S(=O)(=O)[O-])cc2cc(S(=O)(=O)[O-])c(N=Nc3ccccc3)c(O)c12.[Na+].[Na+] [Acid Red 33, diantrium salt of 5-amino-4-hydroxy-3-(phenylazo)-naphthalene-2,7-disulphonate] | 2500 µg/mL | 
3 | O=C([O-])c1c(Cl)c(Cl)c(Cl)c(Cl)c1-c1c2c(Br)cc(=O)c(Br)c-2oc2c(Br)c(O)cc(Br)c12.O=C([O-])c1c(Cl)c(Cl)c(Cl)c(Cl)c1-c1c2c(Br)cc(=O)c(Br)c-2oc2c(Br)c(O)cc(Br)c12.[Na+].[Na+] [Acid Red 92, disodium salt of 3,4,5,6-tetrachloro-2-(1,4,5,8-tetrabromo-6-hydroxy-3-oxoxanthen-9-yl)benzoic acid] | greater than 10 g/L | 
4 | O=C([O-])C1=NN(c2ccc(S(=O)(=O)[O-])cc2)C(=O)C1N=Nc1ccc(S(=O)(=O)[O-])cc1.[Na+].[Na+].[Na+] (stereo not shown) [Acid Yellow 23, trisodium salt of 4,5-dihydro-5-oxo-1-(4-sulfophenyl)-4-((4-sulfophenyl)azo)-1H-pyrazole-3-carboxylic acid] |  | highly soluble in water
